Experiment in all cases: Ray2010 Assay 74
In assay [1] the target is 5-hydroxytryptamine receptor 1B (Homo sapiens, UniProt P28222). An excerpt: (§1) Table S2 shows raw Ki data for the current study combined with data collected from the literature for the ten additional compounds.
For assay [2], the target named is 5-hydroxytryptamine receptor 1D (Homo sapiens, UniProt P28221).
Source text: as §1

Assay [3] addresses 5-hydroxytryptamine receptor 2B (Homo sapiens, UniProt P41595).
Source text: as §1

Assay [4] concerns the target T1, 5-hydroxytryptamine receptor 3A (Homo sapiens, UniProt P46098).
T1 sequence (P46098 whole entry): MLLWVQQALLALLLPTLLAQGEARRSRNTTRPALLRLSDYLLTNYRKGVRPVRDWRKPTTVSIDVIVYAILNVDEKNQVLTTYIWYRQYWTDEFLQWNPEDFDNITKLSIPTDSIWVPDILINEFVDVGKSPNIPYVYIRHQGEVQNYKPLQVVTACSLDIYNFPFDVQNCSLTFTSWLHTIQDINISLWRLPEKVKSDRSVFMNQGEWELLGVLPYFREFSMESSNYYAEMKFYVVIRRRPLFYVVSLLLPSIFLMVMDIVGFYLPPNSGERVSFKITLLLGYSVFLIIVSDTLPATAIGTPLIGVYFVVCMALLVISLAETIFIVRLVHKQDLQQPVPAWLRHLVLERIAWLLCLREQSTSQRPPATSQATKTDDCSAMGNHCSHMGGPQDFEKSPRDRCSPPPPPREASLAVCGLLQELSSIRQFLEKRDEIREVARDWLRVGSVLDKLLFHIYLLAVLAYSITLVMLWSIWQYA
Source text: as §1

Assay [5] has as its target 5-hydroxytryptamine receptor 5A (Homo sapiens, UniProt P47898).
Source text: as §1

Assay [6] concerns the target 5-hydroxytryptamine receptor 6 (Homo sapiens, UniProt P50406).
Source text: as §1

Assay [7] addresses T2, Alpha-1A adrenergic receptor (Homo sapiens, UniProt P35348).
T2 sequence (P35348 whole entry): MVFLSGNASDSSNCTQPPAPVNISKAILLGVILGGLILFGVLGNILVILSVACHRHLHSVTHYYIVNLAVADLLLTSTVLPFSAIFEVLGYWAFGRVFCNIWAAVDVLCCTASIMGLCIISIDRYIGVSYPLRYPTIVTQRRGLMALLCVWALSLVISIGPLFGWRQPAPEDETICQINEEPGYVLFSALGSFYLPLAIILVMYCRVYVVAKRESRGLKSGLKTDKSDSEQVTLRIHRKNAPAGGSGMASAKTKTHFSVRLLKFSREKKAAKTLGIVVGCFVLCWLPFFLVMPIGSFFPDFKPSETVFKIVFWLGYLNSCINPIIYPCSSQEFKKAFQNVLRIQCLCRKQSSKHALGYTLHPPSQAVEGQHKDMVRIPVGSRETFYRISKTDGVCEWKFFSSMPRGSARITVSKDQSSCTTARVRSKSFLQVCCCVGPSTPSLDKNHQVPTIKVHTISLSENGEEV
Source text: as §1

Assay [8] addresses T3, Alpha-2A adrenergic receptor (Homo sapiens, UniProt P08913).
T3 sequence (P08913 whole entry): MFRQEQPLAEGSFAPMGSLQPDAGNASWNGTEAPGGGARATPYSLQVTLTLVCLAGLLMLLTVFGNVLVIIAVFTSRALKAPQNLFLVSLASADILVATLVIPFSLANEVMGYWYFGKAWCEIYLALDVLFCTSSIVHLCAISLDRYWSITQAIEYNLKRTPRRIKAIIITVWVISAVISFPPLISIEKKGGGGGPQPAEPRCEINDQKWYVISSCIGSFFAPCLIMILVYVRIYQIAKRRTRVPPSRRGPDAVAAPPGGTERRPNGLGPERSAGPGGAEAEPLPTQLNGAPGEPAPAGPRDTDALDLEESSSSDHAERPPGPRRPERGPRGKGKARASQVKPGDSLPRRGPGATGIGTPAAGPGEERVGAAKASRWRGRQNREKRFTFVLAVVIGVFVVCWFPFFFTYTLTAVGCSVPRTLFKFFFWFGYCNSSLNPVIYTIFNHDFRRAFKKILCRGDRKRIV
Source text: as §1

The target of assay [9] is Beta-1 adrenergic receptor (Homo sapiens, UniProt P08588).
Source text: as §1

In the next assay the target is D(1B) dopamine receptor (Homo sapiens, UniProt P21918).
Source text: as §1

A further assay concerns the target D(2) dopamine receptor (Homo sapiens, UniProt P14416).
Source text: as §1

Assay [10] concerns the target Delta-type opioid receptor (Homo sapiens, UniProt P41143).
Source text: as §1

Assay [11] addresses Glutamate receptor ionotropic, NMDA 2A (Homo sapiens, UniProt Q12879).
Source text: as §1

The target of another assay is Histamine H1 receptor (Homo sapiens, UniProt P35367).
Source text: as §1

A further assay concerns the target Histamine H2 receptor (Homo sapiens, UniProt P25021).
Source text: as §1

Another assay has as its target Histamine H4 receptor (Homo sapiens, UniProt Q9H3N8).
Source text: as §1

A further assay has as its target Mu-type opioid receptor (Homo sapiens, UniProt P35372).
Source text: as §1

Assay [12] concerns the target T4, Muscarinic acetylcholine receptor M5 (Homo sapiens, UniProt P08912).
T4 sequence (P08912 whole entry): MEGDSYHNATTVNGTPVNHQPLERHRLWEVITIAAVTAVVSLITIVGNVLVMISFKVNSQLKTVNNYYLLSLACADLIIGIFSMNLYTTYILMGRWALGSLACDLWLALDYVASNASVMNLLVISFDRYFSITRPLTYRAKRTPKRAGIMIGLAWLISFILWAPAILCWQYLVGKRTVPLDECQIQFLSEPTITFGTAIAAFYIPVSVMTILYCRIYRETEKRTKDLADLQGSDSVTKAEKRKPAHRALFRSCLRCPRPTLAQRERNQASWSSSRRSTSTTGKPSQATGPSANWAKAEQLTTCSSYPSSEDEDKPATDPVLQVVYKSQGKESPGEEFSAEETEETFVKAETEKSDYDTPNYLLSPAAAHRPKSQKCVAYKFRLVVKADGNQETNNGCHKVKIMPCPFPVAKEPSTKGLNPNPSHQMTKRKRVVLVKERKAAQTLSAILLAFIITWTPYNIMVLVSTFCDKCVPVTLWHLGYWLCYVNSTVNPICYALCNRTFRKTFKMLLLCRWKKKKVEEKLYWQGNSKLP
Source text: as §1

The target of assay [13] is Sodium-dependent dopamine transporter (Homo sapiens, UniProt Q01959).
Source text: as §1

From BindingDB's records for PubMed 20126400 (University of Oklahoma, 2010) come the findings set out here.

Chain of Delta-type opioid receptor (P41143 whole entry): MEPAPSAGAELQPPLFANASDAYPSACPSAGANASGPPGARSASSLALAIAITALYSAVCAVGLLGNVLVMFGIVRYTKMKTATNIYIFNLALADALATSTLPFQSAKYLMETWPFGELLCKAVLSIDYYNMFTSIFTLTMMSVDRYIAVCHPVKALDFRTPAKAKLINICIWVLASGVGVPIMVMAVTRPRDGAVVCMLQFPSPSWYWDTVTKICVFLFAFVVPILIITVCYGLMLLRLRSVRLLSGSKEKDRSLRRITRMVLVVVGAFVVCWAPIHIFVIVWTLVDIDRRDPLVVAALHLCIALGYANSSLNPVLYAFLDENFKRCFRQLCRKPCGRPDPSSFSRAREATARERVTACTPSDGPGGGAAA
Chain of Glutamate receptor ionotropic, NMDA 2A (Q12879 whole entry): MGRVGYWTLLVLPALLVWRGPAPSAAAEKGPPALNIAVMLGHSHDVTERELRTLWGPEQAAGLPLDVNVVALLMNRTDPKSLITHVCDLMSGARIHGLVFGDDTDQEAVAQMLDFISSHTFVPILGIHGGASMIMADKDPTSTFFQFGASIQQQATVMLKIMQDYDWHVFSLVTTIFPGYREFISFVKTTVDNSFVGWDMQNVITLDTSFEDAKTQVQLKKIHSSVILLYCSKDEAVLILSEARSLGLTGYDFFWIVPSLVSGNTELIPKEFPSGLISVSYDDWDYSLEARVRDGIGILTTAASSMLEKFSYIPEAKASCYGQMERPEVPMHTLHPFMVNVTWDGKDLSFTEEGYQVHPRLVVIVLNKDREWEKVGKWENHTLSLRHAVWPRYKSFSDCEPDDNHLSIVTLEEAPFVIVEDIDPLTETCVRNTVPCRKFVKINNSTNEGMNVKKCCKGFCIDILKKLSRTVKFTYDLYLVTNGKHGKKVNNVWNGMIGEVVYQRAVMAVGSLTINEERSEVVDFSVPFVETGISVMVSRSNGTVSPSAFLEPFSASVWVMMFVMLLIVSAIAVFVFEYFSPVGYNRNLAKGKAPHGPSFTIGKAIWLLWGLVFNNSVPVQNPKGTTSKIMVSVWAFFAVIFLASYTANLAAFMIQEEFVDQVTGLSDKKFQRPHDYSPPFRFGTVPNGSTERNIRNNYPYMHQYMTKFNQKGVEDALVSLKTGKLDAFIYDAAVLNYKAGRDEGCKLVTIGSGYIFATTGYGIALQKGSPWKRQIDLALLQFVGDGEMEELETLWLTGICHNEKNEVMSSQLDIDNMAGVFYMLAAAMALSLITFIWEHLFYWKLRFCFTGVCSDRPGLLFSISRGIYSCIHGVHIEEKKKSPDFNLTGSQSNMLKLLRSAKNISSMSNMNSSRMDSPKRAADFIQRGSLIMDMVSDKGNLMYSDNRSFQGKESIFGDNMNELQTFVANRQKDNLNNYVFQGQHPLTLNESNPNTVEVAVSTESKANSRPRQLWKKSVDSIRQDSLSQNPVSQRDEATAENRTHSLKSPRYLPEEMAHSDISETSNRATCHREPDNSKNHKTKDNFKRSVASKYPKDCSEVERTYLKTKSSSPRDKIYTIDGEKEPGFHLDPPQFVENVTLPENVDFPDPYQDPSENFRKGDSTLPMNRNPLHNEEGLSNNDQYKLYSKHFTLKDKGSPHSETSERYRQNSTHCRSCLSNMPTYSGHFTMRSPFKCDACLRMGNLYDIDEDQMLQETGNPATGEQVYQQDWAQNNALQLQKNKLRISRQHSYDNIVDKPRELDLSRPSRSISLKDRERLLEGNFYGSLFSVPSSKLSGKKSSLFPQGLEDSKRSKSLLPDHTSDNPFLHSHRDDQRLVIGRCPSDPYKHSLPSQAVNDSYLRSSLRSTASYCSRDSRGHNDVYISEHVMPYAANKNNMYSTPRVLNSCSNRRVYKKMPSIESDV
Chain of 5-hydroxytryptamine receptor 1D (P28221 whole entry): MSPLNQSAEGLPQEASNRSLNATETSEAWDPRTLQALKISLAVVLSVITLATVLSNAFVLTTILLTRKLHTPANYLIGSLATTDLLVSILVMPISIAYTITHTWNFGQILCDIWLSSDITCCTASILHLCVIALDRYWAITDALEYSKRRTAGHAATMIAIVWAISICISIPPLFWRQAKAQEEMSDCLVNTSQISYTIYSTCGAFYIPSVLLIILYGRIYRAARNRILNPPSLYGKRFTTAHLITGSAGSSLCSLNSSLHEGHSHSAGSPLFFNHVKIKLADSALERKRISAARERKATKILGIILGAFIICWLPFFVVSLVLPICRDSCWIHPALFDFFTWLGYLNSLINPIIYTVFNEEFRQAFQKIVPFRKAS
Chain of Histamine H1 receptor (P35367 whole entry): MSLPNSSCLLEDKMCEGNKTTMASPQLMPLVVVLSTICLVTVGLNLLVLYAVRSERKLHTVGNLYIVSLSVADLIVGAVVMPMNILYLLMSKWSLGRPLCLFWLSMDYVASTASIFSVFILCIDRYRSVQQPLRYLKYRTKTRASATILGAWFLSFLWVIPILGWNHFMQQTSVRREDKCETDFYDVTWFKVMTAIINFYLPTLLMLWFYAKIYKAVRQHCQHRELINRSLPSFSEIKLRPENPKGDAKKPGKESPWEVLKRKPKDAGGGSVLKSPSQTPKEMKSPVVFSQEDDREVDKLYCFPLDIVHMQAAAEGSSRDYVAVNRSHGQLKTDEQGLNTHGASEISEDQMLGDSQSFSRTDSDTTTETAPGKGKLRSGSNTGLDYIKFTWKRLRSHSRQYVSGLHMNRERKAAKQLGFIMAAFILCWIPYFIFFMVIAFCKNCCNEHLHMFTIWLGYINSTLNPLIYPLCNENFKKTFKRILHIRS
Chain of Mu-type opioid receptor (P35372 whole entry): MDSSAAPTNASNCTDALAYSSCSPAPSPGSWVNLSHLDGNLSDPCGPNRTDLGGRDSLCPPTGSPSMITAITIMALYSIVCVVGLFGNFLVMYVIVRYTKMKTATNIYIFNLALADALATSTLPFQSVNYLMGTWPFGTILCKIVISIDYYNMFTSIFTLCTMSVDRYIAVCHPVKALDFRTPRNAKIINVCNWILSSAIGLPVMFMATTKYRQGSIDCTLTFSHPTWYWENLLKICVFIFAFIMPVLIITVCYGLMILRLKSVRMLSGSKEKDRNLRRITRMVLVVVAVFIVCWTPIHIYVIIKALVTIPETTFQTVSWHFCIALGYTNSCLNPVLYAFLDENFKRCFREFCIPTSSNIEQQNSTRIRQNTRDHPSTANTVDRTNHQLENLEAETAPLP
Chain of Histamine H4 receptor (Q9H3N8 whole entry): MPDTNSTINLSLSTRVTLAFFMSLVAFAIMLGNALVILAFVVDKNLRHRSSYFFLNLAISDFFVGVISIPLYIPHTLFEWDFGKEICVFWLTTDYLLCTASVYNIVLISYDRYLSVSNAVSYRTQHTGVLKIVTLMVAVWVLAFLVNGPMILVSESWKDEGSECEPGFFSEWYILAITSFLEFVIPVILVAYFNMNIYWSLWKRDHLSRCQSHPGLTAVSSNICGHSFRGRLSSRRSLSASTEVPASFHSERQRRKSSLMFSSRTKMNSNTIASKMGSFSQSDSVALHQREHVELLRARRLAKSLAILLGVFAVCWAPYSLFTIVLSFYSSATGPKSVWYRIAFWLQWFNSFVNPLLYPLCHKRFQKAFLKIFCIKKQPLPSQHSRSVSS
Chain of D(2) dopamine receptor (P14416 whole entry): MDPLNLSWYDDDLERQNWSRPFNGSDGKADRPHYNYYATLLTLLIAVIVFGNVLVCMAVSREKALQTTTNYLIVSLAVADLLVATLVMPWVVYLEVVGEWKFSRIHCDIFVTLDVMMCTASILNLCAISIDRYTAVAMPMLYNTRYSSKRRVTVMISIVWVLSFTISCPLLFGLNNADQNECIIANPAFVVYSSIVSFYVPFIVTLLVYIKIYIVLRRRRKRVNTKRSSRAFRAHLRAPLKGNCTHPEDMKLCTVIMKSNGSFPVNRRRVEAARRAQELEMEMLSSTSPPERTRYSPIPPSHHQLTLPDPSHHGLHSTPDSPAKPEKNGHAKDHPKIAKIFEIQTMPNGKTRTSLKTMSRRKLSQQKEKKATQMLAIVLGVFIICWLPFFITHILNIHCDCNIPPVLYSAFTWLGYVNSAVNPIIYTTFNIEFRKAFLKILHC
Chain of D(1B) dopamine receptor (P21918 whole entry): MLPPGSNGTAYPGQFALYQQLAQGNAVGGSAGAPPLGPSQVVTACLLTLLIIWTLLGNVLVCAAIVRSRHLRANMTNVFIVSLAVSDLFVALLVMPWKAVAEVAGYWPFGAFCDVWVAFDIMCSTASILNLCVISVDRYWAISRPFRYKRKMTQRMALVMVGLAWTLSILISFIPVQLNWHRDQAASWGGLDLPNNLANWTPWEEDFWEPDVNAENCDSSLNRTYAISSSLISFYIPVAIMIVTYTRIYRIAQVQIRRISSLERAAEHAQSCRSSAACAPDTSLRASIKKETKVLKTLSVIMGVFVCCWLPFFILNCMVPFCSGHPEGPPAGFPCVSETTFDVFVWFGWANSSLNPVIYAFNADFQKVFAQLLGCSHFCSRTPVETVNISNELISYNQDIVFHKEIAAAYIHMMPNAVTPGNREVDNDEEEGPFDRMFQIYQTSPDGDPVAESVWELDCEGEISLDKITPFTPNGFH
Chain of 5-hydroxytryptamine receptor 1B (P28222 whole entry): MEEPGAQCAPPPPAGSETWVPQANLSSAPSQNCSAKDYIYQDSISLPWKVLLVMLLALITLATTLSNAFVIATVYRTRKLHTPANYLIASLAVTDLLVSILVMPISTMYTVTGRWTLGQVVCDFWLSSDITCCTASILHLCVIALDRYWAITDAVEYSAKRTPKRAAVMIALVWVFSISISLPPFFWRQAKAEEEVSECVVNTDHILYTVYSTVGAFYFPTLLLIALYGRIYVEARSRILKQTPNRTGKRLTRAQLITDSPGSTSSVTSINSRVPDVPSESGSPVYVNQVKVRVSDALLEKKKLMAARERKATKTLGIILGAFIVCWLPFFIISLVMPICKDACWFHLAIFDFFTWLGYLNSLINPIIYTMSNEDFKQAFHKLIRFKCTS

As a reminder, the Ki is a dissociation constant, usually derived from enzyme kinetics or from competition with a known ligand. A higher Ki goes with lower affinity. For `CCCN(CCC)CCc1c[nH]c2ccccc12` [dpt], the Ki in assay [1] was 854 nM; in assay [2], 619 nM; in assay [3], 42 nM; in assay [4], more than 10 µM; in [5], 4.37 µM; in [6] it was 4.54 µM. The Ki is 0.881 µM in [7]; 458 nM in assay [8]; more than 10 µM in assay [9]; more than 10 µM on D(1B) dopamine receptor; 9.25 µM at D(2) dopamine receptor; more than 10 µM in assay [10]. Also, the Ki in [11] was more than 10 µM; at Histamine H1 receptor, 0.125 µM; on Histamine H2 receptor, more than 10 µM; on Histamine H4 receptor, more than 10 µM; on Mu-type opioid receptor, more than 10 µM; in [12], more than 10 µM. In [13], this compound returned a Ki of 1.5 µM.
Regarding `CC(C)N(CCc1c[nH]c2ccccc12)C(C)C` [dipt], the Ki was more than 10000 nM in [1]; 3740 nM in assay [2]; 398 nM in assay [3]; more than 10 µM in [4]; more than 10 µM in assay [5]; more than 10 µM in assay [6]. In addition, the Ki in assay [7] was more than 10 µM; in assay [8], more than 10000 nM; in assay [9] it was more than 10 µM; at D(1B) dopamine receptor, more than 10 µM; on D(2) dopamine receptor, more than 10 µM; in assay [10] it was more than 10 µM. In addition, the Ki in assay [11] is more than 10 µM; at Histamine H1 receptor it was 3.58 µM; on Histamine H2 receptor, more than 10 µM; at Histamine H4 receptor, more than 10 µM; at Mu-type opioid receptor, more than 10 µM; in [12], more than 10 µM. Moreover, the Ki in [13] is more than 10 µM.
For the compound `CCc1cc(OC)c(CC(C)N)cc1OC` (stereo not given), the Ki in assay [1] is 2800 nM; in [2], 6620 nM; in [3], 28.8 nM; in [4], more than 10 µM; in assay [5], more than 10 µM; in assay [6] it was more than 10 µM. In addition, the Ki was more than 10 µM in assay [7]; 1280 nM in [8]; 5.72 µM in assay [9]; more than 10 µM on D(1B) dopamine receptor; more than 10 µM on D(2) dopamine receptor; more than 10 µM in assay [10]. For the same compound, the Ki (in [11]; on Histamine H1 receptor; on Histamine H2 receptor; on Histamine H4 receptor; on Mu-type opioid receptor; in assay [12]) was more than 10 µM throughout. This compound yielded a Ki in assay [13] of more than 10 µM.
On to `COc1cc(CC(C)N)c(OC)cc1Br` (stereo not drawn) [2-(4-Bromo-2,5-dimethoxy-phenyl)-1-methyl-ethylamine((-)-DOB)], for which the Ki is 941 nM in [1]; 635 nM in assay [2]; 3.9 nM in [3]; more than 10 µM in assay [4]; 5.31 µM in assay [5]; 5.53 µM in [6]. For the same compound, the Ki is more than 10 µM in [7]; 4270 nM in [8]; 2.42 µM in assay [9]; more than 10 µM on D(1B) dopamine receptor; more than 10 µM on D(2) dopamine receptor; more than 10 µM in [10]. The Ki was more than 10 µM in assay [11]; 9.12 µM at Histamine H1 receptor; more than 10 µM on Histamine H2 receptor; more than 10 µM on Histamine H4 receptor; more than 10 µM at Mu-type opioid receptor; more than 10 µM in assay [12]. In addition, the Ki in assay [13] is more than 10 µM.
With `CCc1cc(OC)c(CCN)cc1OC` [2-(2,5-dimethoxy-4-ethylphenyl)ethylamine], the Ki in assay [1] was 253 nM; in [2], 73.2 nM; in assay [3], 25.1 nM; in [4], more than 10 µM; in assay [5], more than 10 µM; in assay [6], 2.97 µM. Also, the Ki in assay [7] is more than 10 µM; in assay [8], 490 nM; in assay [9], more than 10 µM; on D(1B) dopamine receptor, more than 10 µM; at D(2) dopamine receptor, 3.34 µM; in assay [10], more than 10 µM. For the same compound, the Ki in assay [11] was more than 10 µM; at Histamine H1 receptor, more than 10 µM; at Histamine H2 receptor, more than 10 µM; on Histamine H4 receptor, more than 10 µM; on Mu-type opioid receptor, more than 10 µM; in assay [12] it was 1.73 µM. Further, the Ki in assay [13] is more than 10 µM.
